One may read the stoichiometry N as the number of molecules, sites or subunits per partner or assembly.

The target of data set [1] is T1, human Fam20A−Fam20C complex (Homo sapiens, UniProt Q96MK3).
T1 construct: Fam20A residues 69-529 and Fam20C residues 63-584, High Five cells, His6-MBP tags removed with TEV; heterodimer in crystal; with Extracellular serine/threonine protein kinase FAM20C
T1 sequence (Q96MK3 69-529): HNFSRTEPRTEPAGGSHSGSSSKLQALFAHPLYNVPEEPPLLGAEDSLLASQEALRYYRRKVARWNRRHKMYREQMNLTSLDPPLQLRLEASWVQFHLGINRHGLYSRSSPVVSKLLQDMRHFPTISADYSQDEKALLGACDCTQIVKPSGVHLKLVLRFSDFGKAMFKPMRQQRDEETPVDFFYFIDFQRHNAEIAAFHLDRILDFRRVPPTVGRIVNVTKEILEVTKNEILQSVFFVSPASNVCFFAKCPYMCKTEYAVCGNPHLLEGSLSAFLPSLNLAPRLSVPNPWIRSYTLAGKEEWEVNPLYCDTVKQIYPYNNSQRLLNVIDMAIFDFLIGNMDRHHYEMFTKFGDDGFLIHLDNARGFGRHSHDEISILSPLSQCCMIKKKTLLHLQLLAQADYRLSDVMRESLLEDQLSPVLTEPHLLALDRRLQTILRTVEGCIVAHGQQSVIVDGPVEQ
T1 sequence (Q8IXL6 63-584 partner): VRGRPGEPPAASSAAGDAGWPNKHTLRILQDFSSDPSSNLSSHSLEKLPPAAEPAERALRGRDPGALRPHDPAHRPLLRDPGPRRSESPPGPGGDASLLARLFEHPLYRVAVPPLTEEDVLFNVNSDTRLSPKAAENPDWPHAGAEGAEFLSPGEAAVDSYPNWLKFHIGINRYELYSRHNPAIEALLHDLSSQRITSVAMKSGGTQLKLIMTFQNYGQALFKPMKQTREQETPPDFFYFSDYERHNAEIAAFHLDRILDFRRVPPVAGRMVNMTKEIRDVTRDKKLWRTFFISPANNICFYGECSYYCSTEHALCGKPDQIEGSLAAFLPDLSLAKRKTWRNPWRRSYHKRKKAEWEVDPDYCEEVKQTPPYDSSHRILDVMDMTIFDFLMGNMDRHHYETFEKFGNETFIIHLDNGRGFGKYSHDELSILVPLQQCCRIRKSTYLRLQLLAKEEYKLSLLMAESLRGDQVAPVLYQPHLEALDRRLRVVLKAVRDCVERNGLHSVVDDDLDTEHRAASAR
As to the kind of experiment: X-ray crystal structure, […] Å. In kind it is binding. Particulars: 0.25 mM ATP; ATP-1 bound to Fam20A in inverted orientation; ATP-2 bound to Fam20A at a second site, possibly a crystallization artifact.

The next data set has as its target T2, Fam20A−drFam20C complex (Homo sapiens, UniProt Q96MK3).
T2 construct: human Fam20A residues 69-529 with zebrafish Fam20C residues 124-560, High Five cells, His6-MBP tags removed with TEV; heterotetramer; with Extracellular serine/threonine protein kinase FAM20C (Danio rerio)
T2 sequence (Q96MK3 69-529): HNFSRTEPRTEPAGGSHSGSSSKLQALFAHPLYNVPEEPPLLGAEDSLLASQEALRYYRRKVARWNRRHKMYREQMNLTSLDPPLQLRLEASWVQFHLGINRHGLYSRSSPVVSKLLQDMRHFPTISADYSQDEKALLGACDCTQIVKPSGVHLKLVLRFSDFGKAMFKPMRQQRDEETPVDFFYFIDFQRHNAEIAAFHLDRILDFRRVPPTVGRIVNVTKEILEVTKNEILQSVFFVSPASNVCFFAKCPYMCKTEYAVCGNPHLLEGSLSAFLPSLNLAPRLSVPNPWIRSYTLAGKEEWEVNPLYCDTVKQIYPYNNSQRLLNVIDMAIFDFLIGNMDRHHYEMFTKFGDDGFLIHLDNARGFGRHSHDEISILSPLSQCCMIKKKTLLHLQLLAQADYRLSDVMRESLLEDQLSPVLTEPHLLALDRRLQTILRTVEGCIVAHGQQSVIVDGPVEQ
T2 sequence (E7FBB8 26-545 partner): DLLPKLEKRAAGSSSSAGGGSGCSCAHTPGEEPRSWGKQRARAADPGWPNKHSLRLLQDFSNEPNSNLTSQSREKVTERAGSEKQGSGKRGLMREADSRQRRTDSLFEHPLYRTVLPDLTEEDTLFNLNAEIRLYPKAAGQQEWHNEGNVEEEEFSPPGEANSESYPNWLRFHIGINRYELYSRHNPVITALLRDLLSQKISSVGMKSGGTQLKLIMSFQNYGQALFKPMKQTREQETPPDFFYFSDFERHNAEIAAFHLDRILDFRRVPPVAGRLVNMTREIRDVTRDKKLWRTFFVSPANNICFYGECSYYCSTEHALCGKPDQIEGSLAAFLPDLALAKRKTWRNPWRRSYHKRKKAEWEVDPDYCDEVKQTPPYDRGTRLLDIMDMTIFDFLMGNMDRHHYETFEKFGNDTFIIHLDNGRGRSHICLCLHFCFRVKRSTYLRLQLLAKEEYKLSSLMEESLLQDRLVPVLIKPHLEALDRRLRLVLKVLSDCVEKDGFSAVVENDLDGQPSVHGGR
As to the kind of experiment: X-ray crystal structure, […] Å. The format is binding. Particulars: 0.25 mM ATP; ATP-1 bound to Fam20A in inverted orientation.

In another data set the target is T3, aqFam20 (Amphimedon queenslandica, UniProt A0A1X7UVU4).
T3 construct: gene 100636703; residues 31-418, His6-MBP fusion secreted from High Five insect cells, cloned from cDNA library; monomer
T3 sequence (A0A1X7UVU4 entry or part of it): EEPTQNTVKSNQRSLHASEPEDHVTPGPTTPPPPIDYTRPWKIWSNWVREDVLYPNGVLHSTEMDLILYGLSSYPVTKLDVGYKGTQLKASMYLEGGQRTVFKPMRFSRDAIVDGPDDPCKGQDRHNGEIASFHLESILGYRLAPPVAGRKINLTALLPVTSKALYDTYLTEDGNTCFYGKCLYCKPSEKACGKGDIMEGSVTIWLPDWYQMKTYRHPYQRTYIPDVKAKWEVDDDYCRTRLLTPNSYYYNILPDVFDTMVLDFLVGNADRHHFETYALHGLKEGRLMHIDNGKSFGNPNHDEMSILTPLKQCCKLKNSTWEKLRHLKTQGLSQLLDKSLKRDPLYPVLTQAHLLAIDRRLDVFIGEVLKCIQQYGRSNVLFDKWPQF
As to the kind of experiment: […] incorporation from [γ-32P]ATP, Sep-Pak C18, scintillation counting. In kind it is biochemical. To be noted: 100 uM Gal-Xyl-benzyl, 100 uM ATP, 10 mM MnCl2, pH 7.5, 30 °C.

Another data set concerns the target T4, hmFam20 (Hydra vulgaris, UniProt A0ABM4BCH6).
T4 construct: gene LOC100203383; residues 55-415, codon-optimized synthetic gene, High Five cells; for crystals His6-MBP removed with TEV and N-glycans trimmed with endoglycosidase F3; monomer
As to the kind of experiment: X-ray crystal structure, […] Å. Particulars: co-crystallised with 2 mM Gal-Xyl-benzyl, 5 mM AMP-PNP, 10 mM MgCl2, pH 6.9; pocket next to the ATP-binding site; also phosphorylated by this enzyme (Figure 5b).

The target in data set [2] is T5, human Fam20B (hsFam20B) (Homo sapiens, UniProt O75063).
T5 construct: residues 55-402, His6-MBP fusion secreted from High Five insect cells, Ni-NTA; monomer
T5 sequence (O75063 55-402): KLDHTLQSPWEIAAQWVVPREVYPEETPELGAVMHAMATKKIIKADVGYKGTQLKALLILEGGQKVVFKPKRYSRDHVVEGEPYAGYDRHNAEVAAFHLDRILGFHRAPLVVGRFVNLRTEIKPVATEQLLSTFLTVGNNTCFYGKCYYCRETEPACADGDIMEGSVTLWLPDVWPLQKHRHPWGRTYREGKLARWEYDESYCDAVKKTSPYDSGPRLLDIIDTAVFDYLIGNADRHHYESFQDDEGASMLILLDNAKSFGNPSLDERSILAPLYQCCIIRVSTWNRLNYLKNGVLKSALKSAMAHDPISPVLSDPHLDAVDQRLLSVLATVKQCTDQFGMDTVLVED
As to the kind of experiment: […] incorporation from [γ-32P]ATP, Sep-Pak C18, scintillation counting. In kind it is biochemical. To be noted: 100 uM Gal-Xyl-benzyl, 100 uM ATP, 10 mM MnCl2, pH 7.5, 30 °C.

The target of data set [3] is T6, human Fam20B (hsFam20B) (Homo sapiens, UniProt O75063, K312R).
T6 construct: residues 55-402, His6-MBP fusion secreted from High Five insect cells, Ni-NTA; monomer
T6 sequence (O75063 55-402 K312R): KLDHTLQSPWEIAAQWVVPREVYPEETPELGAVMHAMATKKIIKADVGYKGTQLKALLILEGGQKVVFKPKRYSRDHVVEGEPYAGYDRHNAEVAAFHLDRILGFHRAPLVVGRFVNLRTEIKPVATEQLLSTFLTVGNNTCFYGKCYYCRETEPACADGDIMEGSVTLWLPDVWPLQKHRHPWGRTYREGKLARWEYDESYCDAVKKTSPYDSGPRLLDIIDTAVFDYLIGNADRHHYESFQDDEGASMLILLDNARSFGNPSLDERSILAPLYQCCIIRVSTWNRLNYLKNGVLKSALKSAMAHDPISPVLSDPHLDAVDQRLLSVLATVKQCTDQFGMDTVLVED
Described as above. Particulars: 100 uM Gal-Xyl-benzyl, 100 uM ATP, 10 mM MnCl2, pH 7.5, 30 °C; mutant activity completely abolished. The format is biochemical.

Data set [4] concerns the molecule itself. As to the kind of experiment: not stated; ceFam20 (WT or F260A/P263G) in solution (Supplementary Fig. 3C).

T4 sequence (A0ABM4BCH6 entry or part of it): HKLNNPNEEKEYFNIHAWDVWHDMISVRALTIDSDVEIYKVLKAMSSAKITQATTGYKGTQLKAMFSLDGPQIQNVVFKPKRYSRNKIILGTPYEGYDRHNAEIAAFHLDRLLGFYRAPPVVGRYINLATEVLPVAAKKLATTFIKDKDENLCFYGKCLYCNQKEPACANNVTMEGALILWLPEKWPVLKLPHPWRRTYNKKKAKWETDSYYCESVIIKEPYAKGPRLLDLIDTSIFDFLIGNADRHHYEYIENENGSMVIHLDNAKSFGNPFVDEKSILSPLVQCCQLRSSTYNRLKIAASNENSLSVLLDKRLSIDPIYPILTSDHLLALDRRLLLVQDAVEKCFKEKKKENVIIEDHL

In the case of `Nc1ncnc2c1ncn2[C@@H]1O[C@H](COP(=O)(O)OP(=O)(O)OP(=O)(O)O)[C@@H](O)[C@H]1O` [ATP], in data set [1], the “X-ray crystal structure, 3.30 Å” value is listed as “In both structures, an ATP molecule (ATP-1) is bound to Fam20A in an inverted orientation”. Also, at Fam20A−drFam20C complex, the “X-ray crystal structure, 3.55 Å” value was “In both structures, an ATP molecule (ATP-1) is bound to Fam20A in an inverted orientation”.

With `OC[C@H]1O[C@@H](O[C@@H]2CO[C@@H](OCc3ccccc3)[C@H](O)[C@H]2O)[C@H](O)[C@@H](O)[C@H]1O` [Gal-Xyl, Galβ1-4Xylβ1-O-benzyl], the “32P incorporation from [γ-32P]ATP, Sep-Pak C18, scintillation counting” value at aqFam20 was “sponge (aqFam20) and hydra (hmFam20) phosphorylate the Gal-Xyl disaccharide”; on human Fam20B (hsFam20B) [2], “phosphorylate the Gal-Xyl disaccharide with efficiencies similar to human Fam20B (hsFam20B)”; at human Fam20B (hsFam20B) [3], “in human Fam20B (K312R, Fig. 6c) completely abolishes kinase activity”. In addition, the “X-ray crystal structure, 2.85 Å” value at hmFam20 is on record as “we also determined the structure of hmFam20 in complex with Gal-Xyl”.

B1: ceFam20 (Fam20C ortholog of Caenorhabditis elegans) (enzyme)
chain: SLPHQPIPPSLGEKDLSDPFNFLFSSNKITLRKLYDLTKNVDFDQLRQNECKKNITLSKFWEKSEQRNVPEDDNWERFYSNIGSCSVYSDDQMIDNLLHDLNTSPIKHVHIMDGGTQVKFVFTFKNDKQAVFKPMRFGRDYESDPNHFYFSDFERHHAEIATFHLDRVLGFRRAIPTVGRVLNMTTELFEKAEKKLKKTFFFSPAKNFCFVSRCDYYCDTTHAICGLPDMKEGSVQVFLPDESAVPRKHNRSPYRRTYSKKNQVAEWQSSMNYCTDKVKTKRQYAHGRRLLDLVDIHILDYLIGNQDRHHFESFNVFNDLPSYAIHLDHGRAFGRSDFDDDDIILPLRQCCILRPSTFQTLMNFYSTPKSLTKALHESLSKDPAHPILAYKHYPAMERRLAKIMSHILECFESRGVAEVLVAEYNNPDVSDAEQNDEEQSEEHQDKKDDKKTV
notes: C. elegans Fam20 (ceFam20)
For the molecule B1, in data set [4], the “stoichiometry N” value was found to be 2.
